ChEMBL document CHEMBL1135678, “Pyrimidoquinazoline-based antitumor agents. Design of topoisomerase II to DNA cross-linkers with activity against protein kinases” (2002)
Calls of active or inactive are those of the source. The calls are words filed in the database; no cut-off is given here.

Legend:
OVCAR-3 = experiment: Compound tested for cytotoxicity against human cancer cell line (Ovcar 3 ovarian); type: functional; conditions: read-out: LC50 (the source's name)
WiDr = experiment: Compound tested for cytotoxicity against human cancer cell line (WiDr Colon); type: functional; conditions: read-out: LC50 (the source's name)
HT-29 [1] = experiment: Compound tested for cytotoxicity against human cancer cell line (HT-29 colon); type: functional
HT-29 [2] = experiment: Compound tested for cytotoxicity against human cancer cell line (HT-29 colon); Inactive; type: functional, cell-based

Question: Which CC50 (OVCAR-3) does the source give for `Oc1nc(CBr)nc2cc3c(O)nc(CBr)nc3cc12` here?
Answer: The CC50 was 850 nM.

Question: What about the CC50 (WiDr) of the same compound?
Answer: Its CC50 is 900 nM.

Question: `COc1c2nc(CCl)n(C)c(=O)c2c(OC)c2nc(CCl)n(C)c(=O)c12` was tested. Which LC50 (50% lethal concentration) (HT-29 [1]) did it give?
Answer: The LC50 (50% lethal concentration) was 110 nM.

Question: Which LC50 (50% lethal concentration) (HT-29 [1]) does the source give for `CC(=O)Oc1nc2cc3c(=O)n(C)c(OC(C)=O)nc3cc2c(=O)n1C` here?
Answer: The LC50 (50% lethal concentration) was 19000 nM.

Question: Which LC50 (50% lethal concentration) (HT-29 [1]) does the source give for `Cn1c(CBr)nc2cc3c(=O)n(C)c(CBr)nc3cc2c1=O` here?
Answer: Its LC50 (50% lethal concentration) is 280 nM.

Question: How did the LC50 (50% lethal concentration) (HT-29 [1]) turn out when `COc1c2nc(CCl)n(C)c(=O)c2c(OC)c2c(=O)n(C)c(CCl)nc12` was run?
Answer: The LC50 (50% lethal concentration) was 6330 nM.

Question: With `COCCCn1c(CCl)nc2c(OC)c3c(=O)n(CCCOC)c(CCl)nc3c(OC)c2c1=O` as the compound, how does the IA (HT-29 [2]) read?
Answer: Its IA is “inactive”.

Question: For `CCCn1c(CCl)nc2cc3c(=O)n(CCC)c(CCl)nc3cc2c1=O`, which LC50 (50% lethal concentration) (HT-29 [1]) is on record?
Answer: The LC50 (50% lethal concentration) was 800 nM.

Question: `Cn1c(CCl)nc2cc3c(=O)n(C)c(CCl)nc3cc2c1=O` was tested. Which CC50 (OVCAR-3) did it give?
Answer: The CC50 was 2000 nM.

Question: What about the CC50 (WiDr) of the same compound?
Answer: The CC50 was 350 nM.

Question: Which CC50 (WiDr) does the source give for `Oc1nc(CCl)nc2cc3c(O)nc(CCl)nc3cc12` here?
Answer: The CC50 was 5000 nM.

Question: Which IA (HT-29 [2]) does the source give for `COCCn1c(CCl)nc2c(OC)c3c(=O)n(CCOC)c(CCl)nc3c(OC)c2c1=O` here?
Answer: Its IA is “inactive”.
